Assay results reported in article PMC2884014 (Biochemistry, 2010).
Read-outs that look alike come from different tables or passages of the source.

Experiments:
Type in all cases: biochemical
[1] = molecular target: T1, MurA (UDP-N-acetylglucosamine 1-carboxyvinyltransferase) (Enterobacter cloacae, UniProt P33038); assay: crystal structure at […] Å
[2] = molecular target: T1, MurA (UDP-N-acetylglucosamine 1-carboxyvinyltransferase); assay: crystal structure at […] Å; remark: listed apart in the source
[3] = molecular target: MurA (UDP-N-acetylglucosamine 1-carboxyvinyltransferase) (Escherichia coli, UniProt P0A749); assay: malachite green assay of residual MurA activity
Sequence of MurA (UDP-N-acetylglucosamine 1-carboxyvinyltransferase) (Escherichia coli, UniProt P0A749) (P0A749 whole entry): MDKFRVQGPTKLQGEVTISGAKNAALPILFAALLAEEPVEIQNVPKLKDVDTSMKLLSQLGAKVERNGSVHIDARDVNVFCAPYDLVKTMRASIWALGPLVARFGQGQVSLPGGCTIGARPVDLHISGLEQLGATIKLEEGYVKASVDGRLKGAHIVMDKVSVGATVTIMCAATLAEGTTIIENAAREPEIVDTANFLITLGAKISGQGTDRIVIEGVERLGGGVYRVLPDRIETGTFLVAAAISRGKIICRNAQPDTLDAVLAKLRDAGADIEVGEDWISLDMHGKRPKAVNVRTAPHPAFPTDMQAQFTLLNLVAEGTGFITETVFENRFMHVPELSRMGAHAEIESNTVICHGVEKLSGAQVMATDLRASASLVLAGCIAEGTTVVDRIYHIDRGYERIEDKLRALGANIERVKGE

T1 sequence (P33038 whole entry): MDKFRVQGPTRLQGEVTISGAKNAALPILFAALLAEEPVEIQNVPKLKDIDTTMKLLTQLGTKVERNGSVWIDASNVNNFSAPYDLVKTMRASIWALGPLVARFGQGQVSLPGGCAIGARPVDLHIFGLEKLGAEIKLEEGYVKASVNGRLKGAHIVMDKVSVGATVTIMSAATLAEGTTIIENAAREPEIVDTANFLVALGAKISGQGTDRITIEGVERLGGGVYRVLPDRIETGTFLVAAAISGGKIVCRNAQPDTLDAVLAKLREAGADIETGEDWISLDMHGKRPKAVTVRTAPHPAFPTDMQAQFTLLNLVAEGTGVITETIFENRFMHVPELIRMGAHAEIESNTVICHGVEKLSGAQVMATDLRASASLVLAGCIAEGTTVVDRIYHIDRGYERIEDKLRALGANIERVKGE

For `C[C@@H]1O[C@@H]1P(=O)(O)O` [fosfomycin, (1R,2S)-1,2-epoxypropyl phosphonic acid], the IC50 [1] was 0.25 ± 0.01 µM.

In the case of `CC1=C(O)C(=O)[C@@H]2O[C@@H]2C1=O` [terreic acid], the IC50 [2] is reported as 14 ± 0.6 µM and the “malachite green assay of residual MurA activity” value [3] is reported as “terreic acid is a covalent inhibitor of the bacterial cell wall biosynthetic enzyme MurA from E. cloacae and E. coli in-vitro”.
